From publication PMC10537105, “Derivatives Incorporating Acridine, Pyrrole, and Thiazolidine Rings as Promising Antitumor Agents” (Molecules, 2023)

How the values were obtained:
MCF-7 = experiment: MTT assay, MCF-7 cells; assay type: cell-based, human; details: Homo sapiens, MCF7, 72 h of incubation, read-out: IC50 values ± SD, MCF-7
Excerpt: (§1) The impact of acridine spiro derivatives 6–10 (Figure 13) on the metabolic activity of various tumor cell lines HCT-116 (human colorectal carcinoma), Jurkat (human leukemia cells), HeLa (human cervical adenocarcinoma), MDA-MB-231, and MCF-7 (human breast adenocarcinoma), and normal cell lines COS-7 (monkey kidney cells) and BJ-5ta (skin fibroblasts) was investigated using the MTT assay. This assay measures the conversion of yellow 3-(4,5-dimethylthiazol-2-yl)-2,5-diphenyltetrazolium bromide (MTT) to insoluble purple formazan by metabolically active cells. The antiproliferative activities of the tested compounds were determined based on the results from the MTT assay, and the inhibitory concentration values (IC50) are presented in Table 5.
(§2) The human cancer cell lines employed in this study were sourced from reputable institutions, including the American Type Culture Collection (ATCC; Manassas, VA, USA) and the European Collection of Authenticated Cell Cultures (ECACC, Salisbury, UK). Specifically, HeLa (93021013, human cervical adenocarcinoma), HCT116 (CCL-247TM, human colorectal carcinoma), and Jurkat (88042803, human leukemic T-cell lymphoma) were cultured in RPMI 1640 medium (Biosera, Kansas City, MO, USA). In contrast, MCF-7 (HTB-22TM, human breast adenocarcinoma, ER+), MDA-MB-231 (HTB-26TM, human breast adenocarcinoma, ER−), and COS-7 (CRL-1651TM, kidney fibroblasts) were nurtured in high-glucose Dulbecco’s Modified Eagle Medium (DMEM) supplemented with sodium pyruvate (Biosera). Furthermore, BJ-5ta (CRL-4001TM, human dermal fibroblasts) was cultured in a composite medium of high-glucose DMEM and M199 (4:1) (Biosera), supplemented with Hygromycin B (0.01 mg/mL; Merck, Darmstadt, Germany). All culture media were enriched with a 10% fetal bovine serum (FBS; Gibco, Thermo Scientific, Rockford, IL, USA) and an antibiotic/antimycotic solution (Merck) to ensure optimal growth conditions. The cells were meticulously maintained within a humidified environment containing 5% CO2 at 37 °C. Regular screenings for mycoplasma contamination were conducted using Hoechst 33342 staining (Merck), confirming the integrity of the cell lines.
(§3) To assess the antiproliferative impact of the synthesized compounds 6–10, their half-maximal inhibitory concentration (IC50) and the MTT colorimetric assay were employed. MDA-MB-231 and MCF-7 cells were seeded into 96-well microplates (SARSTEDT, Nümbrecht, Germany) at a density of 5 × 10^3 cells per well. After 24 h of cell seeding, various concentrations (100, 50, and 10 µmol/L) of acridine derivatives 6–10 were introduced, alongside cisplatin (utilized as a reference) at concentrations of 5, 10, 20, 50, and 100 µmol/L. Subsequent to 24, 48, and 72 h of treatment, the cells in each well underwent incubation with MTT (5 mg/mL, Sigma-Aldrich Chemie, Steinheim, Germany) for 4 h at 37 °C in the dark. During this period, mitochondrial oxidoreductases metabolized MTT, forming insoluble formazan. Following this, 100 µL of SDS (10% […]) was added to dissolve the formazan crystals, and the cells were incubated for an additional 12 h. Absorbance at 540 nm was measured using the automated Cytation™ 3 Cell Imaging Multi-Mode Reader (Biotek, Winooski, VT, USA). Each test was performed in triplicate, and three independent experiments were conducted to ensure precision and reliability.

MDA-MB-231 = experiment: MTT assay, MDA-MB-231 cells; assay type: cell-based, human; details: Homo sapiens, MDA-MB-231, 72 h of incubation, read-out: IC50 values ± SD, MDA-MB-231
Excerpt: as §1, §2, §3

HeLa = experiment: MTT assay, HeLa cells; assay type: cell-based, human; details: Homo sapiens, HeLa, 72 h of incubation, read-out: IC50 values ± SD, HeLa
Excerpt: as §1, §2, §3

HCT-116 = experiment: MTT assay, HCT-116 cells; assay type: cell-based, human; details: Homo sapiens, HCT-116; MTT, 72 h of incubation; read-out: IC50 values ± SD, HCT-116
Excerpt: as §1, §2, §3

Jurkat = experiment: MTT assay, Jurkat cells; assay type: cell-based, human; details: Homo sapiens, Jurkat; MTT, 72 h of incubation; read-out: IC50 values ± SD, Jurkat
Excerpt: as §1, §2, §3

COS-7 = experiment: MTT assay, COS-7 normal cells; assay type: cell-based, monkey; details: Primates, COS-7, 72 h of incubation, normal cell line, read-out: IC50 values ± SD, COS-7
Excerpt: as §1, §2, §3

BJ-5ta = experiment: MTT assay, BJ-5ta normal fibroblasts; assay type: cell-based, human; details: Homo sapiens, Fibroblast, 72 h of incubation, normal cell line, read-out: IC50 values ± SD, BJ-5ta
Excerpt: as §1, §2, §3

Row | SMILES | IC50 (MCF-7) [µM] | IC50 (MDA-MB-231) [µM] | IC50 (HeLa) [µM] | IC50 (HCT-116) [µM] | IC50 (Jurkat) [µM] | melting point | IC50 (COS-7) [µM] | IC50 (BJ-5ta) [µM]
1 | CC1S/C(=N\N2C(=O)C(C#N)=CC23c2ccccc2Nc2ccccc23)N(c2ccccc2)C1=O (stereo not shown) [9a, 1′-{[(2Z)-5-Methyl-4-oxo-3-phenyl-1,3-thiazolidin-2-ylidene]amino}-5′-oxo-1′,5′-dihydro-10H-spiro[acridine-9,2′-pyrrole]-4′-carbonitrile] | > 100 | > 100 | > 100 | > 100 | > 100 | 245 to 249 °C (dec.) | > 100 | > 100
2 | COc1cccc(N2C(=O)C(C)S/C2=N\N2C(=O)C(C#N)=CC23c2ccccc2Nc2ccccc23)c1 (stereo not shown) [9c, 1′-{[(2Z)-3-(3-Methoxyphenyl)-5-methyl-4-oxo-1,3-thiazolidin-2-ylidene]amino}-5′-oxo-1′,5′-dihydro-10H-spiro[acridine-9,2′-pyrrole]-4′-carbonitrile] | 65.3 ± 1.89 | 40.8 ± 0.84 | 44 ± 5.88 | 32.7 ± 1.51 | 25.8 ± 2.58 | 237 to 240 °C (dec.) | > 100 | 32.7 ± 0.47
3 | N#CC1=CC2(c3ccccc3Nc3ccccc32)N(/N=C2\SCC(=O)N2c2ccc([N+](=O)[O-])cc2)C1=O [7e, 1′-{[(2Z)-3-(4-Nitrophenyl)-4-oxo-1,3-thiazolidin-2-ylidene]amino}-5′-oxo-1′,5′-dihydro-10H-spiro[acridine-9,2′-pyrrole]-4′-carbonitrile] | > 100 | > 100 | > 100 | 46.2 ± 2.02 | 35.5 ± 2.31 | 244 to 247 °C (dec.) | > 100 | > 100
4 | CCCC1S/C(=N\N2C(=O)C(C#N)=CC23c2ccccc2Nc2ccccc23)N(c2ccc([N+](=O)[O-])cc2)C1=O (stereo not shown) [10e, 1′-{[(2Z)-3-(4-Nitrophenyl)-4-oxo-5-propyl-1,3-thiazolidin-2-ylidene]amino}-5′-oxo-1′,5′-dihydro-10H-spiro[acridine-9,2′-pyrrole]-4′-carbonitrile] | 91.3 ± 3.74 | > 100 | > 100 | > 100 | > 100 | 249 to 251 °C (dec.) | > 100 | > 100
5 | N#CC1=CC2(c3ccccc3Nc3ccccc32)N(NC(=S)Nc2ccc(F)cc2)C1=O [6d, 3-{4′-Cyano-5′-oxo-1′,5′-dihydro-10H-spiro[acridine-9,2′-pyrrol]-1′-yl}-1-(4-fluorophenyl)thiourea] | > 100 | > 100 | > 100 | 18.9 ± 4.71 | 31.8 ± 5.65 | 197 to 199 °C (dec.) | > 100 | > 100
6 | N#CC1=CC2(c3ccccc3Nc3ccccc32)N(NC(=S)Nc2ccccc2)C1=O [6a, 3-{4′-Cyano-5′-oxo-1′,5′-dihydro-10H-spiro[acridine-9,2′-pyrrol]-1′-yl}-1-phenylthiourea] | > 100 | > 100 | 67.2 ± 8.65 | 14.3 ± 5.09 | 11.6 ± 4.3 | 194 to 195 °C (dec.) | > 100 | 92.2 ± 1.6

Stronger by IC50 (MCF-7), values ahead:

Row | IC50 (MCF-7) [µM] | IC50 (MDA-MB-231) [µM] | IC50 (HeLa) [µM] | IC50 (HCT-116) [µM] | IC50 (Jurkat) [µM] | melting point | SMILES | IC50 (COS-7) [µM] | IC50 (BJ-5ta) [µM]
7 | 45.14 ± 0.04 | 39.7 ± 2.4 | 54 ± 0.72 | 24.4 ± 1.31 | 22.1 ± 0.43 | 217 to 220 °C (dec.) | COc1cccc(N2C(=O)CS/C2=N\N2C(=O)C(C#N)=CC23c2ccccc2Nc2ccccc23)c1 [7c, 1′-{[(2Z)-3-(3-Methoxyphenyl)-4-oxo-1,3-thiazolidin-2-ylidene]amino}-5′-oxo-1′,5′-dihydro-10H-spiro[acridine-9,2′-pyrrole]-4′-carbonitrile] | 55.2 ± 5.38 | 38 ± 1.44
8 | 32.5 ± 6.5 | > 100 | 62.5 ± 14 | 46.6 ± 2.66 | > 100 | 249 to 252 °C (dec.) | N#CC1=CC2(c3ccccc3Nc3ccccc32)N(/N=C2\SCC(=O)N2c2ccc(F)cc2)C1=O [7d, 1′-{[(2Z)-3-(4-Fluorophenyl)-4-oxo-1,3-thiazolidin-2-ylidene]amino}-5′-oxo-1′,5′-dihydro-10H-spiro[acridine-9,2′-pyrrole]-4′-carbonitrile] | > 100 | > 100
9 | 30.8 ± 5.22 | > 100 | > 100 | > 100 | > 100 | 207 to 210 °C (dec.) | COc1ccc(N2C(=O)CS/C2=N\N2C(=O)C(C#N)=CC23c2ccccc2Nc2ccccc23)cc1 [7b, 1′-{[(2Z)-3-(4-Methoxyphenyl)-4-oxo-1,3-thiazolidin-2-ylidene]amino}-5′-oxo-1′,5′-dihydro-10H-spiro[acridine-9,2′-pyrrole]-4′-carbonitrile] | > 100 | > 100
10 | 9.48 ± 0.27 | 8 ± 1.32 | 6.5 ± 0.43 | 5.45 ± 0.01 | 5.6 ± 0.04 | 183 to 186 °C (dec.) | CCOC(=O)/C=C1\S/C(=N\N2C(=O)C(C#N)=CC23c2ccccc2Nc2ccccc23)N(c2ccc([N+](=O)[O-])cc2)C1=O [8e, Ethyl 2-[(2Z,5Z)-2-({4′-cyano-5′-oxo-1′,5′-dihydro-10H-spiro[acridine-9,2′-pyrrol]-1′-yl}imino)-3-(4-nitrophenyl)-4-oxo-1,3-thiazolidin-5-ylidene]acetate] | 10.2 ± 0.5 | 7.07 ± 0.26
11 | 8.52 ± 0.79 | 7.85 ± 0.97 | 5.97 ± 0.15 | 5.46 ± 0.02 | 5.64 ± 0.09 | 269 to 272 °C (dec.) | CCOC(=O)/C=C1\S/C(=N\N2C(=O)C(C#N)=CC23c2ccccc2Nc2ccccc23)N(c2ccc(F)cc2)C1=O [8d, Ethyl 2-[(2Z,5Z)-2-({4′-cyano-5′-oxo-1′,5′-dihydro-10H-spiro[acridine-9,2′-pyrrol]-1′-yl}imino)-3-(4-fluorophenyl)-4-oxo-1,3-thiazolidin-5-ylidene]acetate] | 9.45 ± 0.24 | 7.32 ± 0.35
